Source: article PMC11625470 (Nature chemical biology, 2024)
Like-named read-outs stand apart in the source and are kept apart here. One block for each molecule: values may come before it.

Assays:
[1] = target: T1, bovine CNT3 (bCNT3) (Bos taurus, UniProt F1MGR1); experiment: cryo-EM structure; type: binding
T1 sequence (F1MGR1 1-699): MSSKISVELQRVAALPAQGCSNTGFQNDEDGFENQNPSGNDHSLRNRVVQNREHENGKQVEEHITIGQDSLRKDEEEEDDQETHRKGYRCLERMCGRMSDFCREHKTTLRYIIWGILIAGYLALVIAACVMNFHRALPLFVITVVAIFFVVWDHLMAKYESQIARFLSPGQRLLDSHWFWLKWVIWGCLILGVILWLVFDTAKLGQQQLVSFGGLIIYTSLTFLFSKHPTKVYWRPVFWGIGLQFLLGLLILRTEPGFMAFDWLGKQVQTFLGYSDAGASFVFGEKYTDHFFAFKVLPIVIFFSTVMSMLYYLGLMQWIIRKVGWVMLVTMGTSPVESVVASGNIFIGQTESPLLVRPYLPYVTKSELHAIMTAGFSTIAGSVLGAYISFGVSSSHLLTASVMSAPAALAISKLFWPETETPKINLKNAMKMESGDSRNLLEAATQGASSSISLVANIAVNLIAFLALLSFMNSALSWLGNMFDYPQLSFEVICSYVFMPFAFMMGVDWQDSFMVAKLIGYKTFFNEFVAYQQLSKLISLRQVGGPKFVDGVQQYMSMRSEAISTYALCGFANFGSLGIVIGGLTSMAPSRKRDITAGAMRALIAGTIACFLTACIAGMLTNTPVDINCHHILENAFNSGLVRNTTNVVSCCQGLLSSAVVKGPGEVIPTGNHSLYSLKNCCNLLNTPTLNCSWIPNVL

[2] = target: T2, human concentrative nucleoside transporter 3 (hCNT3) (Homo sapiens, UniProt Q9HAS3); experiment: cold competition of [3H]-ribavirin uptake in oocytes; type: cell-based
T2 sequence (Q9HAS3 1-691): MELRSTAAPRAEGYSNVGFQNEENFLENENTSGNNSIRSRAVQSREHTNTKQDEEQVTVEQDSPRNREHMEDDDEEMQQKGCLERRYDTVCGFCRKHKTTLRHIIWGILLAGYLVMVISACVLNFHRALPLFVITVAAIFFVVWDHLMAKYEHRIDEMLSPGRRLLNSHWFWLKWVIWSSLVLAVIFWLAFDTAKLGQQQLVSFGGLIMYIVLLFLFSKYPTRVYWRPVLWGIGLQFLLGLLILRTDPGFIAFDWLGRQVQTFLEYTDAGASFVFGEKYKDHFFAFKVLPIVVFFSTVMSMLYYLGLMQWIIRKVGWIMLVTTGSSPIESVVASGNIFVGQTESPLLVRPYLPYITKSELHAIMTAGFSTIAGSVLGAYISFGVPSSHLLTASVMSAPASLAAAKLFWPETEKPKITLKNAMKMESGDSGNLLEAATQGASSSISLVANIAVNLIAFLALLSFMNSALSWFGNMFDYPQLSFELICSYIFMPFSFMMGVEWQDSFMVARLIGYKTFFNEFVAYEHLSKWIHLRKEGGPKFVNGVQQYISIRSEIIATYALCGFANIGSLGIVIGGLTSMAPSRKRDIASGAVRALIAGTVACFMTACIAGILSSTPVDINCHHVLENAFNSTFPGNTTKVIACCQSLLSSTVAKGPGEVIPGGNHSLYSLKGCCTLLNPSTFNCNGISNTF

[3] = target: T1, bovine CNT3 (bCNT3); experiment: cryo-EM structure; type: binding; remark: listed apart in the source
[4] = target: T2, human concentrative nucleoside transporter 3 (hCNT3); experiment: cold competition of [3H]-ribavirin uptake in oocytes; type: cell-based; remark: listed apart in the source
[5] = target: T2, human concentrative nucleoside transporter 3 (hCNT3); experiment: as above; type: cell-based; remark: listed apart in the source
[6] = target: the molecule itself; experiment: cryo-EM structure

Molecule: C[C@@]1(F)[C@H](O)[C@@H](CO)O[C@H]1n1ccc(=O)[nH]c1=O [PSI-6206]
cryo-EM structure (2.69 Å), inward-facing state [1]: The quality of the maps enabled unambiguous modeling of nucleoside drugs for NHC, PSI-6206, and ribavirin

Molecule: CC(C)C(=O)OC[C@H]1O[C@@H](n2ccc(NO)nc2=O)[C@H](O)[C@@H]1O [MPV, molnupiravir]
IC50 [5]: ~54 µM

B1: Bos taurus concentrative nucleoside transporter 3 (CNT3) (natural protein, UniProt F1MGR1 1-699, looked up)
chain: MSSKISVELQRVAALPAQGCSNTGFQNDEDGFENQNPSGNDHSLRNRVVQNREHENGKQVEEHITIGQDSLRKDEEEEDDQETHRKGYRCLERMCGRMSDFCREHKTTLRYIIWGILIAGYLALVIAACVMNFHRALPLFVITVVAIFFVVWDHLMAKYESQIARFLSPGQRLLDSHWFWLKWVIWGCLILGVILWLVFDTAKLGQQQLVSFGGLIIYTSLTFLFSKHPTKVYWRPVFWGIGLQFLLGLLILRTEPGFMAFDWLGKQVQTFLGYSDAGASFVFGEKYTDHFFAFKVLPIVIFFSTVMSMLYYLGLMQWIIRKVGWVMLVTMGTSPVESVVASGNIFIGQTESPLLVRPYLPYVTKSELHAIMTAGFSTIAGSVLGAYISFGVSSSHLLTASVMSAPAALAISKLFWPETETPKINLKNAMKMESGDSRNLLEAATQGASSSISLVANIAVNLIAFLALLSFMNSALSWLGNMFDYPQLSFEVICSYVFMPFAFMMGVDWQDSFMVAKLIGYKTFFNEFVAYQQLSKLISLRQVGGPKFVDGVQQYMSMRSEAISTYALCGFANFGSLGIVIGGLTSMAPSRKRDITAGAMRALIAGTIACFLTACIAGMLTNTPVDINCHHILENAFNSGLVRNTTNVVSCCQGLLSSAVVKGPGEVIPTGNHSLYSLKNCCNLLNTPTLNCSWIPNVL
stoichiometry N [6]: 3

Continued, in another order:

IC50 [2]: ~13 µM
Molecule: O=c1nc(NO)ccn1[C@@H]1O[C@H](CO)[C@@H](O)[C@H]1O [NHC, N^4-hydroxycytidine]
cryo-EM structure (2.74 Å), inward-facing state [3]: This substituent interacts with S380 in the bCNT3-NHC structure

IC50 [4]: ~400 µM
Molecule: N#C[C@@]1(c2ccc3c(N)ncnn23)O[C@H](CO)[C@@H](O)[C@H]1O [GS4, GS-441524]
